# From ChEMBL document CHEMBL1146766, “Synthesis of 3a,4-dihydro-3H-[1]benzopyrano[4,3-c]isoxazoles, displaying combined 5-HT uptake inhibiting and alpha2-adrenoceptor antagonistic activities. Part 2: Further exploration on the cinnamyl moiety” (Bioorg Med Chem Lett, 2004)
# Experiments:
# [1] = target: Adrenergic receptor alpha-2 (Rattus norvegicus) (UniProt P22086+P19328+P22909); assay: Inhibition ofmedetomidine-induced loss of righting, which evaluates the ability to block central alpha-2-adrenoceptor; type: functional
# [2] = target: T1, Alpha-2C adrenergic receptor (Homo sapiens, UniProt P18825); assay: In vitro binding affinity to human alpha-2C adrenergic receptor
# T1 sequence (P18825 whole entry): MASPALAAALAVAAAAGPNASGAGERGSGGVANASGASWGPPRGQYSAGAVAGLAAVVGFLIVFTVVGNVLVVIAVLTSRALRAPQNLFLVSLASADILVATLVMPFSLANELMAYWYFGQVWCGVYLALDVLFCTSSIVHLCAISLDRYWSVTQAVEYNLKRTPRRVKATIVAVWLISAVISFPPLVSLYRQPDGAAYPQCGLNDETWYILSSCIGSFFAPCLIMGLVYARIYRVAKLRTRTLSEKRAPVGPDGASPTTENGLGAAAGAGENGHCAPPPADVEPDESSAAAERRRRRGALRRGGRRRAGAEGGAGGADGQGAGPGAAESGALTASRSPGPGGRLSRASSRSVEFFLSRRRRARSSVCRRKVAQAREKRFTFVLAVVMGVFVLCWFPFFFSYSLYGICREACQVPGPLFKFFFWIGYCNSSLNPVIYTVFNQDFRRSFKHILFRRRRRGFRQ
# [3] = target: T2, Alpha-2A adrenergic receptor (Homo sapiens, UniProt P08913); assay: In vitro binding affinity to the human alpha-2A adrenergic receptor
# T2 sequence (P08913 whole entry): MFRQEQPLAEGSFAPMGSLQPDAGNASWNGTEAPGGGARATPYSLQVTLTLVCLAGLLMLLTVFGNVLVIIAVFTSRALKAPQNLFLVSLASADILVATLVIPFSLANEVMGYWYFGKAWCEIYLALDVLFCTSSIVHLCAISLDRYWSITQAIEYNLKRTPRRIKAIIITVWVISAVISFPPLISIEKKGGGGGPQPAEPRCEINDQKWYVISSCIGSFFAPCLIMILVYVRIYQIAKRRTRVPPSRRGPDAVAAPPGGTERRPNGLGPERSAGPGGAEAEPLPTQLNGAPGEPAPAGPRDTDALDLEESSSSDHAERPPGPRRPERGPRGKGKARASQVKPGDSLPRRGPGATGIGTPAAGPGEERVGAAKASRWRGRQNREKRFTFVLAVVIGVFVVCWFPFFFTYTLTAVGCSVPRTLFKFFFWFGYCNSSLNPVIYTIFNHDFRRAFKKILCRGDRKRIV
# [4] = target: Sodium-dependent serotonin transporter (Homo sapiens, UniProt P31645); assay: In vitro binding affinity towards human serotonin transporter
# Chain of Sodium-dependent serotonin transporter (P31645 whole entry): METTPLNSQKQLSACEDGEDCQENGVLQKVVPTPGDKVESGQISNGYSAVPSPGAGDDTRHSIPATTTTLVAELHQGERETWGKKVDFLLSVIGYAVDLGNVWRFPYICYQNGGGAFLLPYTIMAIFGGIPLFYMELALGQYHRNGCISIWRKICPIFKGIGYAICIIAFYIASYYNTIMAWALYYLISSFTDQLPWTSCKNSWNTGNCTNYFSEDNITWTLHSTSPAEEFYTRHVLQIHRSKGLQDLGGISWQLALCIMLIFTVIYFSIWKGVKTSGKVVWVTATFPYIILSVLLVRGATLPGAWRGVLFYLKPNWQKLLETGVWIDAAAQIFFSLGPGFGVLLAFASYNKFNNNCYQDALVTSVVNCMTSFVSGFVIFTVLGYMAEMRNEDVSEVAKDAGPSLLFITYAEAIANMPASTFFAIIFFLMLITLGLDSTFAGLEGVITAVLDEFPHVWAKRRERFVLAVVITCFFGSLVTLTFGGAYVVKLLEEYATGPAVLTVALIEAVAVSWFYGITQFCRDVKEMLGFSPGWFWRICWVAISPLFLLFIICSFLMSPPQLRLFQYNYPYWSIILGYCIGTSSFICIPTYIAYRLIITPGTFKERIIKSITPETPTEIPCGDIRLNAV
SMILES,ED50 [1] [mg/kg],Ki [2] [nM],Ki [3] [nM],Ki [4] [nM]
COc1cc2c(cc1OC)C1=NO[C@@H](CN3CCN(C/C(C)=C/c4cccc(F)c4F)CC3)[C@@H]1CO2,10,0.7,3,
COc1cc2c(cc1OC)C1=NO[C@@H](CN3CCN(C/C=C/c4cccc(F)c4)CC3)[C@@H]1CO2,5,0.7,5.9,2.5
COc1cc2c(cc1OC)C1=NO[C@@H](CN3CCN(C/C=C/c4ccccc4)CC3)[C@@H]1CO2,,,,8.3
COc1cc2c(cc1OC)C1=NO[C@@H](CN3CCN(C/C=C/c4ccc(Cl)cc4)CC3)[C@@H]1CO2,10,10,69,1.3
COc1cc2c(cc1OC)C1=NO[C@@H](CN3CCN(C/C=C/c4ccc(F)cc4)CC3)[C@@H]1CO2,4.7,23,9,5.6
COc1cc2c(cc1OC)C1=NO[C@@H](CN3CCN(C/C=C(\C)c4ccco4)CC3)[C@@H]1CO2,0.16,0.4,0.5,22
COc1cc2c(cc1OC)C1=NO[C@@H](CN3CCN(C/C=C(\C)c4ccc(O)cc4)CC3)[C@@H]1CO2,> 2.5,0.6,1.9,7.6
COc1cc2c(cc1OC)C1=NO[C@@H](CN3CCN(C/C(C)=C/c4cccnc4)CC3)[C@@H]1CO2,3.1,2.1,22,63
COc1cc2c(cc1OC)C1=NO[C@@H](CN3CCN(C/C=C(\C)c4ccc(F)cc4)CC3)[C@@H]1CO2,1.25,0.3,2.9,1.3
COc1cc2c(cc1OC)C1=NO[C@@H](CN3CCN(C/C=C/c4ccccc4F)CC3)[C@@H]1CO2,2.5,2.8,2.9,13
COc1cc2c(cc1OC)C1=NO[C@@H](CN3CCN(C/C(C)=C/c4ccco4)CC3)[C@@H]1CO2,5,0.5,1.7,21
COc1cc2c(cc1OC)C1=NO[C@@H](CN3CCN(C/C=C(\C)c4ccccc4OC)CC3)[C@@H]1CO2,> 2.5,0.9,5.2,51
COc1cc2c(cc1OC)C1=NO[C@@H](CN3CCN(C/C=C(\C)c4ccccc4)CC3)[C@@H]1CO2,0.3,,,4.5
COc1cc2c(cc1OC)C1=NO[C@@H](CN3CCN(C/C=C\c4ccccc4)CC3)[C@@H]1CO2,> 10,,,35
COc1ccccc1/C=C(\C)CN1CCN(C[C@@H]2ON=C3c4cc(OC)c(OC)cc4OC[C@H]32)CC1,2,0.4,1,
COc1cc2c(cc1OC)C1=NO[C@@H](CN3CCN(C/C(C)=C/c4ccc(F)cc4)CC3)[C@@H]1CO2,10,0.7,3.4,
COc1cc2c(cc1OC)C1=NO[C@@H](CN3CCN(C/C(C)=C/c4cc(F)ccc4F)CC3)[C@@H]1CO2,2.5,0.2,0.3,
COc1cc2c(cc1OC)C1=NO[C@@H](CN3CCN(C/C=C(\C)c4ccsc4)CC3)[C@@H]1CO2,1.25,0.3,1.4,4.8
COc1cc2c(cc1OC)C1=NO[C@@H](CN3CCN(C/C(C)=C/c4cccs4)CC3)[C@@H]1CO2,0.63,0.2,1.7,2.7
COc1cc2c(cc1OC)C1=NO[C@@H](CN3CCN(C/C(C)=C/c4ccccc4)CC3)[C@@H]1CO2,1.3,0.2,,
COc1cc2c(cc1OC)C1=NO[C@@H](CN3CCN(C/C=C(\C)c4cccs4)CC3)[C@@H]1CO2,0.63,0.2,0.3,74
COc1cc2c(cc1OC)C1=NO[C@@H](CN3CCN(C/C(C)=C/c4ccsc4)CC3)[C@@H]1CO2,1.25,0.2,1.1,1.9
COc1cc2c(cc1OC)C1=NO[C@@H](CN3CCN(C/C=C(\C)c4ccc(F)cc4F)CC3)[C@@H]1CO2,> 2.5,0.8,9.3,5.4
COc1cc2c(cc1OC)C1=NO[C@@H](CN3CCN(C/C(C)=C/c4cccc(F)c4)CC3)[C@@H]1CO2,0.63,0.2,1.1,
